target: T1, α4β7 (adhesion of RPMI cells to CS-1) (Homo sapiens, UniProt P13612+P26010); assay: RPMI-CS-1 cell adhesion assay; assay type: cell-based; settings: adhesion of RPMI B-cell line (expresses α4β7) to CS-1 peptide coated microwells; read-out: RPMI-CS-1 IC50 value range
T1 construct: endogenous in cells
T1 sequence (P13612 34-1032): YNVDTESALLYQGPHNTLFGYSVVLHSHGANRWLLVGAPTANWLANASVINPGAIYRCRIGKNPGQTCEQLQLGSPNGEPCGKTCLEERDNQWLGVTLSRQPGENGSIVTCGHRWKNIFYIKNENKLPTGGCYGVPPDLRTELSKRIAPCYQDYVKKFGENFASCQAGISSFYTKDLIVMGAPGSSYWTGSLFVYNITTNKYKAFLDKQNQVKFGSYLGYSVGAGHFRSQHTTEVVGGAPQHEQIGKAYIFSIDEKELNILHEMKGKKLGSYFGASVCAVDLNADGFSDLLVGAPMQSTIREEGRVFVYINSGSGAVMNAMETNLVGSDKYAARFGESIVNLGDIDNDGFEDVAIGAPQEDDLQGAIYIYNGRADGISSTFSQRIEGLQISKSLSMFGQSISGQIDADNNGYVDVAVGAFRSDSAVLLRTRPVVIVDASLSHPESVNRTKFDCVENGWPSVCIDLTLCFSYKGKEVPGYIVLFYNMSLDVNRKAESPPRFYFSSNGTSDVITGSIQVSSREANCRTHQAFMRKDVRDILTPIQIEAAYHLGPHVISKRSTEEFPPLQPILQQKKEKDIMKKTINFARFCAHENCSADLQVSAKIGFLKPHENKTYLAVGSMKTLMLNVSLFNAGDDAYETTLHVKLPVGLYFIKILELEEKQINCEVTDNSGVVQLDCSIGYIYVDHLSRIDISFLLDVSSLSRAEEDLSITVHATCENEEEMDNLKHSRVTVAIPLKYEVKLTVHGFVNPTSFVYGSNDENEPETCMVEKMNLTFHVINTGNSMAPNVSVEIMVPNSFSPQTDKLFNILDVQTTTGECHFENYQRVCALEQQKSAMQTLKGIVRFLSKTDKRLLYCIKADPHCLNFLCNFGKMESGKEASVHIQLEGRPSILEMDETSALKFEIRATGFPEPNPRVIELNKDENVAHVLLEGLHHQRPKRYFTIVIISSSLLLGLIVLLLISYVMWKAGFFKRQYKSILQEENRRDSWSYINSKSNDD
T1 sequence (P26010 20-798): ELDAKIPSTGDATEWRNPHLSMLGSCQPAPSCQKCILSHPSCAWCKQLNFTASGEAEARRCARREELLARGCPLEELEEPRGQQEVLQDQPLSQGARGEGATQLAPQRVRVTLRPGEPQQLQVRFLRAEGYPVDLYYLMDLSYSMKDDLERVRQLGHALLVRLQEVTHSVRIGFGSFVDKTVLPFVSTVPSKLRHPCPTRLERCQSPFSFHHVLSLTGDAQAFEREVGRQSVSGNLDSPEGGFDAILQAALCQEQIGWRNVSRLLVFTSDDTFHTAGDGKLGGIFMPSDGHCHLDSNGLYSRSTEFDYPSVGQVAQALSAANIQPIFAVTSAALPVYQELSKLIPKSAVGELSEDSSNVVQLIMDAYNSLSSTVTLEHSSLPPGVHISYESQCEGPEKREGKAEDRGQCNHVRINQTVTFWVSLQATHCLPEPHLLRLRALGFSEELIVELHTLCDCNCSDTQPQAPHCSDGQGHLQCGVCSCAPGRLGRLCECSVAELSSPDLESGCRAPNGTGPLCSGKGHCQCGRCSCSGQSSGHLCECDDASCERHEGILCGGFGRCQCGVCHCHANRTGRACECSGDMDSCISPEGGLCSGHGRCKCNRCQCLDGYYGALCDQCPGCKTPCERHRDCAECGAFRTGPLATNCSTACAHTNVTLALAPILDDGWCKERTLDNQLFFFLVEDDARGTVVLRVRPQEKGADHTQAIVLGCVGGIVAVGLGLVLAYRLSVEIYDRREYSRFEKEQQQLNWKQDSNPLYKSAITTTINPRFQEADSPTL

Row | Structure (SMILES) | IC50 [nM]
1 | CS(=O)(=O)NC(=O)c1ccccc1-c1ccc(C[C@H](NC(=O)c2c(Cl)cccc2Cl)C(=O)O)cc1 [Example 61, N-(2,6-Dichlorobenzoyl)-4-[2-[(N-methanesulfonyl)carbamoyl]phenyl]-L-phenylalanine] | > 5000
2 | COc1cccc(N(C)C)c1-c1ccc(C[C@H](NC(=O)c2c(Cl)cccc2Cl)C(=O)O)cc1 [Example 29, N-(2,6-Dichlorobenzoyl)-4-[2-(N,N-dimethylamino)-6-methoxyphenyl]-L-phenylalanine] | 1000 to 5000
3 | COC(=O)[C@H](Cc1ccc(-c2ccccc2S(=O)(=O)NC(C)(C)C)cc1)NC(=O)c1c(Cl)cccc1Cl [Example 15, N-(2,6-Dichlorobenzoyl)-4-[2-[N-(tert-butyl)sulfamoyl]phenyl]-L-phenylalanine methyl ester] | 300 to 1000
4 | O=C(O)c1ccc(C(=O)N[C@@H](Cc2ccc(-c3ccccc3O)cc2)C(=O)O)cc1 [Example 81] | > 5000
5 | COc1ccccc1-c1ccc(C[C@H](NC(=O)c2ccccc2NC(C)=O)C(=O)O)cc1 [Example 105] | > 5000
6 | O=C(N[C@@H](Cc1ccc(-c2ccsc2)cc1)C(=O)O)c1c(Cl)cccc1Cl [Example 128] | 300 to 1000
7 | CC(C)COc1ccccc1-c1ccc(C[C@H](NC(=O)c2c(Cl)cccc2Cl)C(=O)O)cc1 [Example 35] | 1000 to 5000
8 | COCc1ccccc1-c1ccc(C[C@H](NC(=O)c2c(Cl)cccc2Cl)C(=O)O)cc1 [Example 51, N-(2,6-Dichlorobenzoyl)-4-[2-(methoxymethyl)phenyl]-L-phenylalanine] | 300 to 1000
9 | Nc1ccccc1-c1ccc(C[C@H](NC(=O)c2c(Cl)cccc2Cl)C(=O)O)cc1 [Example 23, N-(2,6-Dichlorobenzoyl)-4-(2-aminophenyl)-L-phenylalanine] | 300 to 1000
10 | CC(=O)NS(=O)(=O)c1ccccc1-c1ccc(C[C@H](NC(=O)c2c(Cl)cccc2Cl)C(=O)O)cc1 [Example 19, N-(2,6-Dichlorobenzoyl)-4-[2-(N-acetylsulfamoyl)phenyl]-L-phenylalanine] | 1000 to 5000
11 | O=C(N[C@@H](Cc1ccc(-c2cccs2)cc1)C(=O)O)c1c(Cl)cccc1Cl [Example 4B, N-(2,6-Dichlorobenzoyl)-4-(2-thienyl)-L-phenylalanine] | 300 to 1000
12 | COc1ccccc1-c1ccc(C[C@H](NC(=O)c2ccc(NS(=O)(=O)c3cccs3)cc2Cl)C(=O)O)cc1 [Example 191, N-[2-Chloro-4-[(2-thienylsulfonyl)amino]benzoyl]-4-(2-methoxyphenyl)-L-phenylalanine] | < 300
13 | COc1ccccc1-c1ccc(C[C@H](NC(=O)c2ccc(C)nc2Cl)C(=O)O)cc1 [Example 94] | 1000 to 5000
14 | COc1ccccc1-c1ccc(C[C@H](NC(=O)c2ccc(Cl)nc2)C(=O)O)cc1 [Example 93] | > 5000
15 | Cc1noc(C)c1COc1ccccc1-c1ccc(C[C@H](NC(=O)c2c(Cl)cccc2Cl)C(=O)O)cc1 [Example 41] | 1000 to 5000
16 | COc1ccccc1-c1ccc(C[C@H](NC(=O)c2ccc(C(=O)O)cc2Cl)C(=O)O)cc1 [Example 177, N-[2-Chloro-4-carboxybenzoyl]-4-(2-methoxyphenyl)-L-phenylalanine] | < 300
17 | COc1ccccc1-c1ccc(C[C@H](NC(=O)c2c(Cl)cccc2Cl)C(=O)O)cc1C(C)=NO [Example 351, N-(2,6-Dichlorobenzoyl)-3-[1-(hydroxyimino)ethyl]-4-(2-methoxyphenyl)-L-phenylalanine] | < 300
18 | CS(=O)(=O)Nc1ccccc1-c1ccc(C[C@H](NC(=O)c2c(Cl)cccc2Cl)C(=O)O)cc1 [Example 24, N-(2,6-Dichlorobenzoyl)-4-[2-(methanesulfonylamino)phenyl]-L-phenylalanine] | < 300
19 | O=Cc1sccc1-c1ccc(C[C@H](NC(=O)c2c(Cl)cccc2Cl)C(=O)O)cc1 [Example 214, N-(2,6-Dichlorobenzoyl)-4-(2-formyl-3-thienyl)-L-phenylalanine] | 300 to 1000
20 | COc1ncnc(OC)c1-c1ccc(C[C@H](NC(=O)c2c(Cl)cccc2Cl)C(=O)O)cc1 [Example 144] | < 300
21 | O=C(N[C@@H](Cc1ccc(-c2ccccc2CNCc2ccccc2)cc1)C(=O)O)c1c(Cl)cccc1Cl [Example 48, N-(2,6-Dichlorobenzoyl)-4-[2-[(benzylamino)methyl]phenyl]-L-phenylalanine] | 1000 to 5000
22 | COc1ccccc1-c1ccc(C[C@H](NC(=O)[C@H](C)c2ccccc2)C(=O)O)cc1 [Example 78] | 300 to 1000
23 | COc1cc(CN(C)C)cc(OC)c1-c1ccc(C[C@H](NC(=O)c2c(Cl)cccc2Cl)C(=O)O)cc1 [Example 255, N-(2,6-Dichlorobenzoyl)-4-[2,6-dimethoxy-4-[(N,N-dimethylamino)methyl]phenyl]-L-phenylalanine] | < 300

The remaining lines, values ahead:

Row | IC50 [nM] | Structure (SMILES)
24 | < 300 | COc1cccc(OC)c1-c1ccc(C[C@H](NC(=O)c2c(Cl)cccc2Cl)C(=O)O)cc1C(C)O (stereo partly shown) [Example 131]
25 | < 300 | NS(=O)(=O)c1ccccc1-c1ccc(C[C@H](NC(=O)c2c(Cl)cccc2Cl)C(=O)O)cc1 [Example 17, N-(2,6-Dichlorobenzoyl)-4-(2-sulfamoylphenyl)-L-phenylalanine]
26 | < 300 | COc1cc(OCCN(C)C)cc(OC)c1-c1ccc(C[C@H](NC(=O)c2c(Cl)cccc2Cl)C(=O)O)cc1 [Example 223, N-(2,6-Dichlorobenzoyl)-4-[2,6-dimethoxy-4-[2-(N,N-dimethylamino)ethoxy]phenyl]-L-phenylalanine]
27 | < 300 | COc1cccc(OC)c1-c1ccc(C[C@H](NC(=O)c2c(F)cc(F)cc2F)C(=O)O)cc1 [Example 279]
28 | < 300 | COc1cc(OCc2ccncc2)cc(OC)c1-c1ccc(C[C@H](NC(=O)c2c(Cl)cccc2Cl)C(=O)O)cc1 [Example 348]
29 | < 300 | COc1cccc(OC)c1-c1ccc(C[C@H](NC(=O)c2ccc(NS(C)(=O)=O)cc2Cl)C(=O)O)cc1 [Example 77]
30 | < 300 | COc1cc(CNCCO)cc(OC)c1-c1ccc(C[C@H](NC(=O)c2c(Cl)cccc2Cl)C(=O)O)cc1 [Example 246]
31 | < 300 | COc1cc(F)c(-c2ccc(C[C@H](NC(=O)c3c(Cl)cccc3Cl)C(=O)O)cc2)c(OC)c1 [Example 139]
32 | < 300 | COc1ccccc1-c1ccc(C[C@H](NC(=O)c2c(Cl)cccc2Cl)C(=O)O)cc1NC(C)=O [Example 80]
33 | < 300 | C[S+]([O-])c1ccccc1-c1ccc(C[C@H](NC(=O)c2c(Cl)cccc2Cl)C(=O)O)cc1 (single isomer, unassigned) [Example 152A, N-(2,6-dichloro-benzoyl)-4-[2-(methylsulfinyl)phenyl]-L-phenylalanine]
34 | < 300 | CN(C)S(=O)(=O)c1ccccc1-c1ccc(C[C@H](NC(=O)c2c(Cl)cccc2Cl)C(=O)O)cc1 [Example 21, N-(2,6-Dichlorobenzoyl)-4-[2-(N,N-dimethylsulfamoyl)phenyl]-L-phenylalanine]
35 | < 300 | O=Cc1ccccc1-c1ccc(C[C@H](NC(=O)c2c(Cl)cccc2Cl)C(=O)O)cc1 [Example 45, N-(2,6-Dichlorobenzoyl)-4-(2-formylphenyl)-L-phenylalanine]
36 | < 300 | COc1ccccc1-c1ccc(C[C@H](NC(=O)c2c(F)cccc2Cl)C(=O)O)cc1 [Example 86]
37 | < 300 | NCc1ccccc1-c1ccc(C[C@H](NC(=O)c2c(Cl)cccc2Cl)C(=O)O)cc1 [Example 47, N-(2,6-Dichlorobenzoyl)-4-[2-(aminomethyl)phenyl]-L-phenylalanine]
